Patent publication US10137212B2, “Tetrahydroxamate chelators of zirconium89 and niobium90 for use in diagnostic applications” (priority 2013, dated 2018)

Legend:
Type in all cases: physicochemical
[1] = complexation of ligands with ^89Zr, yield by ITLC-SG; details: 7.5 nmol ligand, pH 7
Method: All solutions described below were prepared with de-ionized water purified through a Chelex column prior to use. Stock solutions of ^89Zr at pH 7 were prepared as follow: to 450 μL of the ^89Zr solution in oxalic acid were added 450 μL of a 1M Na2CO3 solution and the pH was adjusted to 7 by addition of small aliquots of a 0.1 M Na2CO3 or 0.1 M HCl. 450 μL of water containing 3% bovine serum albumin were then added. To 45 μL of stock solution (˜1.3 MBq of ^89Zr in a typical experiment) were added 7.5 nmol (5 μL) of L5, L6, L7, C5, C6, or C7 in DMSO or the natural siderophore desferrioxamine B (DFB) mesylate in de-ionized water. These solutions were incubated at desired temperatures and time of reaction and analyzed by ITLC-SG using a 50 mM EDTA (ethylenediaminetetraacetic acid) solution adjusted to pH=7 in de-ionized water as eluant, and analyzed with a Typhoon 8600 scanner (GE Healthcare) in phosphorimaging mode. The percentage of the activity bound to the ligand after TLC was calculated by converting the TLC scan into a chromatogram and integrating the peak corresponding to the spot at the bottom of the TLC. Activity ratios were averaged out of a minimum of 2 TLCs for each condition. The influence of time and temperature on the complexation yield of ^89Zr by L5, L6, L7, C5, C6 and C7 and DFB is shown in Table 1. […]

[2] = in vitro stability of ^89Zr complexes in 0.1 M sodium phosphate buffer pH 6.5; details: 0.1 M sodium phosphate buffer pH 6.5, 10% DMSO, 37° C.
Method: (§1) 10 μL of each ^89Zr complex solution prepared as described above in Example 14 were incubated for 7 days in 40 μL Phosphate-Buffered Saline (PBS) (pH 7.4-10% DMSO) at 20° C., 40 μL sodium phosphate buffer (0.1 M, pH 6.5-10% DMSO) at 37° C., 40 μL human serum at 37° C., or 40 μL 50 mM EDTA (pH 7, 10% DMSO) at 37° C., respectively, and analyzed using the chromatographic system described in the above section after 1 h, 3 h, 1, 2, 3, 4, 5, 6, and 7 days.

[3] = in vitro stability of ^89Zr complexes in 50 mM EDTA (challenge); details: pH 7, 37° C.; for ^89Zr remaining complexed after a week: 7 days (n=4), FIG. 13
Method: FIG. 13 is a graph illustrating the stability of the ^89Zr-complexes in 50 mM EDTA at pH 7 and 37° C. over 7 days (n=4).
as §1

Structure (SMILES) | complexation yield of ^89Zr ([1]; 20° C., 30 min) [%] | complexation yield of ^89Zr ([1]; 20° C., 120 min) [%] | complexation yield of ^89Zr ([1]; 50° C., 30 min) [%] | complexation yield of ^89Zr ([1]; 80° C. (time not given)) [%] | Fraction of intact complex ([2]; 1 Day) [%] | Fraction of intact complex ([2]; 4 Days) [%] | Fraction of intact complex ([2]; 7 Days) [%] | time of release of ~50% of ^89Zr [3] | ^89Zr remaining complexed after a week [3]
O=C1CCCCCN(O)C(=O)CCCCCN(O)C(=O)CCCCCN(O)C(=O)CCCCCN1O [Ligand C5] | 17 | 22 | 23 | 29 | 69 | 46 | 42 | within the first minutes | nearly none
CCCCCC(=O)N(O)CCCCCCC(=O)N(O)CCCCCCC(=O)N(O)CCCCCCC(=O)N(O)CCC [Ligand L6] | 82 | 95 | 96 | >99 | 97 | 94 | 94 | – | –
CCCCC(=O)N(O)CCCCCC(=O)N(O)CCCCCC(=O)N(O)CCCCCC(=O)N(O)CCC [Ligand L5] | 60 | 71 | 73 | 87.3 | 93 | 89 | 77 | – | –
CC(=O)N(O)CCCCCNC(=O)CCC(=O)N(O)CCCCCNC(=O)CCC(=O)N(O)CCCCCN [DFB, desferrioxamine B, reference compound] | >99 | >99 | >99 | >99 | 99 | 98 | 98 | – | –
O=C1CCCCCCN(O)C(=O)CCCCCCN(O)C(=O)CCCCCCN(O)C(=O)CCCCCCN1O [Ligand C6] | 77 | 79 | 92 | 92 | 89 | 79 | 61 | a single day | 32±4%
CCCCCCC(=O)N(O)CCCCCCCC(=O)N(O)CCCCCCCC(=O)N(O)CCCCCCCC(=O)N(O)CCC [Ligand L7] | 88 | >99 | >99 | >99 | 99 | 98 | 98 | – | –
O=C1CCCCCCCN(O)C(=O)CCCCCCCN(O)C(=O)CCCCCCCN(O)C(=O)CCCCCCCN1O [Ligand C7] | 92 | >99 | >99 | >99 | >99 | 99 | 99 | – | 87±3%
